Measurements: patent US20060116325A1, “Methods and compositions for inhibiting hiv-coreceptor interactions” (priority 2001, published 2006)

How the values were obtained:
CXCR4 = CXCR4 (Homo sapiens, UniProt P61073); test: Competition with radiolabeled SDF-1α binding to HEK-CXCR4 cells; parameters: host or cells: CEMx174 (174xCEM); conditions: high concentrations (e.g., 100 μM) of peptide required, FIG. 1
Protocol: Binding assays were performed with HEK-CCR5 or HEK CXCR4 in triplicate by adding unlabeled competitor (anti-coreceptor binding peptide or control chemokine) and radiolabeled chemokine, 0.2 ng/ml (^125I-MIP-1β or SDF-1α, specific activity 2000 Ci/mmol, NEN Life Science Products) to a cell suspension (4×10^5 cells in 200 μl) in RPMI 1640 supplemented with 1% bovine serum albumin and 25 mM HEPES pH 8.0 (binding medium). Cells were then incubated at 22° C. for 40 min with continuous rotation. After incubation cells were transferred to the tubes containing 800 μl of 10% sucrose in PBS and harvested by centrifugation. The supernatant was aspirated and the cell-associated radioactivity was measured using a 1272 Wallac gamma counter. […] After incubation cells were transferred to the tubes containing 800 μl of 10% sucrose in PBS and harvested by centrifugation, the supematant was aspirated and the cell-associated radioactivity was measured using a 1272 Wallac gamma counter. The data were analyzed by nonlinear regression using the computer program GraphPad Prizm 3.0.
Considering that the 15K and 15D peptides were designed in part based on their structural similarity to corresponding chemokine fragments, the binding activity of these peptides for CCR5 and/or CXCR4 receptors, and corresponding anti-coreceptor binding activity against chemokines, was assessed.

HIV-1IIIB = HIV-1IIIB infection of PBMC, p24 ELISA; format: cell-based; conditions: for concentration at which significant inhibition of HIV-1 infection was detected (as low as): HIV-1IIIB, PBMC; for inhibition of T cell-tropic HIV-1 infection of PBMCs (p24): peptide 1 hr before HIV-1IIIB, p24 after 48 hr, FIG. 4
Protocol: Peripheral blood mononuclear cells were treated with designated concentrations of peptide for a period of 1 hr prior to addition of HIV-1IIIB. After 2 hr, cells were washed, and viral replication was determined after 48 hr by analysis of p24 levels. Results are representative of 4 independent experiments.
(§1) PBMCs were obtained from whole blood of normal donors and isolated by Ficoll-Paque Plus (Pharmacia Biotech, Piscataway, N.J.) density gradient centrifugation, and plated at a cell density of 2×10^6 cells/ml. Monocyte-derived macrophages (MDM) were generated from adherent human peripheral blood mononuclear cells by culture for 7 days with M-CSF (100 ng/ml). Cultures were maintained in RPMI-1640 medium (Life Technologies, Rockville, Md.) supplemented with 10% heat-inactivated endotoxin-free FCS (Hyclone, Logan, Utah), 10 μg/ml gentamicin, and 1 mM glutamine. Cells were treated with designated concentrations of the exemplary peptides 15K or 15D, and after 1 hr cells were infected with HIV-1IIIB (T cell tropic) or HIV-1JRFL (monocyte tropic) at an multiplicity of infection (MOI) of 0.1. After 2 hr, cells were washed, and cultured for additional 48-72 hr, followed by analysis of HIV replication as determined by quantification of accumulated p24 in the supernatant. The production of p24 was determined by conventional sandwich ELISA, using ELISA plates pre-coated with capture anti-p24 antibodies provided by the AIDS Vaccine Program (SAIC Frederick, NCI-FCRDC, Frederick, Md.). The captured p24 antigen was detected using rabbit anti-HIV-1 anti-p24 antibody, and a secondary goat anti-rabbit IgG (peroxidase-labeled) antibody. The captured p24 protein was detected using a 3,3′,5,5′-tetramethylbenzidine and hydrogen peroxide detection system (KPL Laboratories, Gaithersburg, Md.). The reaction was read spectrophotometrically at 450 nm. No cytotoxicity was detectable following treatment of PBMC with the peptides even at a concentration of 100 μg/ml.
In view of the foregoing binding inhibition studies, and considering the homology between the 15K and 15D peptides and the CXCR4 ligand SDF-1α, it was further undertaken to determine the capacity of the synthetic peptides to inhibit CXCR4 co-receptor function. In particular, experiments were carried out to assess the ability of 15K or 15D to alter the infection of PBMCs with the T cell-tropic […] strain. […] Significant inhibition of HIV-1 infection was detected with concentrations of peptides as low as 10 ng/ml.

CCR5 = CCR5 (Homo sapiens, UniProt P51681); test: Chemotaxis of HEK-CCR5 cells to RANTES (microchemotaxis chamber); format: cell-based; parameters: expressed in transfected cells; host or cells: HEK-293; conditions: for inhibition of RANTES-directed chemotactic response / induction of chemotaxis by peptide alone: HEK-CCR5 cells; for inhibition of RANTES-directed chemotactic response: RANTES 100 ng/ml, 3 hr; for induction of chemotaxis by peptide alone: tested at any concentration
Protocol: Migration of HEK-CCR5 cells to RANTES alone, or the combination of RANTES and designated concentrations of either 15K or 15D peptides, were determined in micro-chemotaxis chambers. […] The results are representative of three independent experiments. *p<0.05.
Chemotaxis assays for HEK-293 cells transfected with CCRS was performed as previously described (Howard et al., J. Biol. Chem. 274:16228-16234, 1999, incorporated herein by reference). Briefly, the chemokine RANTES, diluted in binding medium to 100 ng/ml, was placed in the lower wells of a microchemotaxis chamber. Polycarbonate membrane pretreated with rat tail collagen type 1 was placed over the chemokine solution. The cells (1×10^6/ml) were suspended in binding medium along with the exemplary peptides 15D or 15K at designated concentrations and placed in the upper wells of the chamber. After incubation for 3 hr the membrane was removed, stained using a Diff-Quik kit (Trends Scientific, Kalamazoo, Mich.) and counted. The results are expressed as the “chemotaxis index”, which represents the ratio of the number of cells in high powered field in test versus control samples.
To achieve this goal, the capacity of these peptides to inhibit the chemotactic response of HEK-CCR5 cells to a cognate ligand of CCR5 receptors, the chemokine RANTES, was assayed.

HIV-1JRFL = HIV-1JRFL infection of monocyte-derived macrophages, p24 ELISA; format: cell-based; conditions: for concentration at which significant inhibition of infection was exhibited (as low as): HIV-1JRFL, monocyte-derived macrophages; for inhibition of HIV-1JRFL infection of monocyte-derived macrophages (p24): peptide 1 hr before virus, p24 after 72 hr, FIG. 3
Protocol: Monocyte-derived macrophages were treated with the designated concentrations of the indicated peptide for a period of 1 hr prior to addition of HIV-1JRFL. After 2 hr, cells were washed, and viral replication was determined after 72 hr by p24 analysis. Results are representative of 4 independent experiments.
as §1
The results described in the preceding Examples indicate that the 15K and 15D peptides effectively block the ability of CCR5 to serve as a receptor to mediate chemotactic responses. Additional experiments were thus carried out to determine the capacity of these peptides to inhibit coreceptor activity mediating cellular entry and infection by HIV-1JRFL (a monocyte-tropic HIV strain), using peripheral blood monocyte-derived macrophages.

Sequence of CCR5 (P51681 whole entry): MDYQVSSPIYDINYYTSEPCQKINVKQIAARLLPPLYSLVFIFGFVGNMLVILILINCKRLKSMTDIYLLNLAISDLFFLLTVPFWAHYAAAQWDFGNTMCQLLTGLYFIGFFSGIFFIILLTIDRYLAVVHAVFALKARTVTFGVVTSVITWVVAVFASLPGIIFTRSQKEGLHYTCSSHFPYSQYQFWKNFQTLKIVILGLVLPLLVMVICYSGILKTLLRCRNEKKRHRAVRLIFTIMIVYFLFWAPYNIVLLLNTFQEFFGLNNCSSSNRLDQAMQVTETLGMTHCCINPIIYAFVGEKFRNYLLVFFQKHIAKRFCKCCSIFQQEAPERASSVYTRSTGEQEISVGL
Sequence of CXCR4 (P61073 whole entry): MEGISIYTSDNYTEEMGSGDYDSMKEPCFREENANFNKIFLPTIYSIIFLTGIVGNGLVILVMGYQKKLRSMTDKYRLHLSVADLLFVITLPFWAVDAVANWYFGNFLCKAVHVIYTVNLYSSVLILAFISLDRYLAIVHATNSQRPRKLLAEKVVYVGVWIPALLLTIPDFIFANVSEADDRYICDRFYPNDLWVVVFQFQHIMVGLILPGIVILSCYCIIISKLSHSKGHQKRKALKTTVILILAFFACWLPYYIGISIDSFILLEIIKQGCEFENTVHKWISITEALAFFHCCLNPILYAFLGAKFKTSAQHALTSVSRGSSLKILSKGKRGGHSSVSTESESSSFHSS

Substance	inhibition of radiolabeled SDF-1α binding to cells expressing CXCR4 (CXCR4)	concentration at which significant inhibition of HIV-1 infection was detected (as low as) (HIV-1IIIB) [ng/mL]	inhibition of T cell-tropic HIV-1 infection of PBMCs (p24) (HIV-1IIIB)	anti-HIV-1 activity of 15D in comparison with 15K (HIV-1IIIB; some experiments, data not shown, virus strain not stated)	inhibitory activity on chemotaxis, one peptide compared with the other (CCR5; 15D versus 15K, FIG. 2)	inhibition of RANTES-directed chemotactic response (CCR5; FIG. 2)	induction of chemotaxis by peptide alone (CCR5)	concentration at which significant inhibition of infection was exhibited (as low as) (HIV-1JRFL) [ng/mL]	inhibition of HIV-1JRFL infection of monocyte-derived macrophages (p24) (HIV-1JRFL)
I R K A H C N I S R A D W N D [Peptide 15D]	significantly inhibit chemokine binding	10	significantly reduced HIV-1 infection	higher anti-HIV-1 activity	consistently exhibited greater inhibitory activity	completely blocked	did not induce detectable chemotaxis	10	significantly reduced monocyte lineage target cell infection
IRKAHCNISRAKWND [Peptide 15K]	significantly inhibit chemokine binding	10	significantly reduced HIV-1 infection			completely blocked	did not induce detectable chemotaxis	10	significantly reduced monocyte lineage target cell infection
